In patent EP0134922A1, “2-Piperazino-pteridines, processes for their preparation and medicaments containing these compounds” (Dr. Karl Thomae GmbH, priority 1983, dated 1985):
Like-named read-outs stand apart in the source and are kept apart here.

Assays:
[1] = Orienting acute toxicity after a single oral dose; details: mouse, in vivo, read-out: Orientierende aktute Toxizität
From the text: (§1) Die orientierende akute Toxizität der zu untersuchenden Substanzen wurde orientierend an Gruppen von je 5 Mäusen nach oraler Gabe einer Einzeldosis bestimmt (Beobachtungszeit: 14 Tage): […]

Mäusen = assay: Orienting acute toxicity after a single oral dose; details: in vivo, po, 250 mg/kg
From the text: as §1

[2] = mice, groups of 5, oral single dose, observation time 14 days

Compound	LD50 at 336 h [1, 2] [mg/kg]	Tieren gestorben (Mäusen) [von 5]	LD50 at 336 h ([1]; po) [mg/kg]
c1ccc(CSc2nc3c(N4CCOCC4)nc(N4CCNCC4)nc3nc2N2CCOCC2)cc1 [Substanz A, 6-Benzylthio-4,7-dimorpholino-2-piperazino-pteridin]	> 250	0	–
CN(C)c1nc2nc(N3CCNCC3)nc(N(C)C)c2nc1Cl [Substanz B, 6-Chlor-4,7-bis-(dimethylamino)-2-piperazino-pteridin]	–	0	> 250
CN(C)c1nc2nc(N3CCNCC3)nc(N(C)C)c2nc1SCc1ccccc1 [Substanz C, 6-Benzylthio-4,7-bis-(dimethylamino)-2-piperazino-pteridin]	> 250	0	–
CSc1nc2c(N3CC[S+]([O-])CC3)nc(N3CCNCC3)nc2nc1NCc1ccccc1 [Substanz D, 7-Benzylamino-6-methylthio-4-(1-oxidothiomorpholino)-2-piperazino-pteridin]	> 250	0	–
CN(C)c1nc(N2CCNCC2)nc2nc(NCc3ccccc3)c(Cl)nc12 [Substanz E, 6-Chlor-2-piperazino-4-dimethyl-amino-7-benzylamino-pteridin]	–	0	> 250
